Reference: US20060009403A1, “Dna demethylase antisense and chemotherapy combination” (Centre National De La Recherche Scientifique (CNRS), priority 2002, published 2006)

System: H1299 tumor grafts (human non-small cell lung tumors)
Experiment: Growth of H1299 tumor grafts in nude mice after intratumor electrotransfer of antisense plasmid and/or intramuscular bleomycin (Experiments 1 and 2)
Assay type: in vivo
Details: for Number of tumors cured (tumors no longer measurable): cured/total
Experimental: Two series of experiments were carried out in nude mice weighing 18 to 20 g. The mice were implanted on one side with H1299 tumor grafts (human non-small cell lung tumors) of approximately 20 mm^3. The tumors developed, to reach a volume of 20 to 150 mm^3. The mice were sorted as a function of the size of the tumors and were divided up into homogeneous batches reaching tumor volumes of 50 to 80 mm^3 (n=10 to 13). The mice were anesthetized with a mixture of ketamine and xylazine.
A series of tumors was subjected to no treatment.
Five electrotransfers of 50 μg of plasmid in 80 μl of 150 mM NaCl were carried out in the tumors on the days indicated by the arrows. The plasmid solution was injected longitudinally at the periphery of the tumor using a Hamilton syringe. The lateral faces of the tumors were coated with conducting gel and the tumors were placed between 2 flat stainless steel electrodes 0.4 to 0.7 cm apart. Twenty to 30 seconds after the injection, the plasmids were electrotransferred using a commercial (square) electrical pulse generator (Jouan Electropulser PS 15). Each tumor was subjected to 500 V/cm delivered in 8 pulses lasting 20 msec at a frequency of 1 Hertz.
Twenty-five μg of bleomycin/animal in 50 μl of 150 mM NaCl were injected bilaterally into the tibialis cranialis muscle and, 30 minutes later, each tumor was subjected to 1 electrotransfer as explained above.
Twenty-five μg of bleomycin/animal in 50 μl of 150 mM NaCl were injected bilaterally into the tibialis cranialis muscle and, 30 minutes later, 50 μg of antisense plasmid in 80 μl of 150 mM NaCl were injected and electrotransferred. Four other electrotransfers of 50 μg of antisense plasmid in 80 μl of 150 mM NaCl were subsequently carried out in the tumors on the days indicated by the arrows.
The tumor volumes were measured individually for each tumor using an electronic slide gauge with a digital display, according to the formula (length×width×thickness)/2.
The median of the tumor volumes was reported in the form of a graph, as a function of time.
Five electrotransfers of 80 μl of 150 mM NaCl were carried out in the tumors on the days indicated by the arrows.
Fifty μl of 150 mM NaCl were injected bilaterally into the tibialis cranialis muscle and, 30 minutes later, an electrotransfer of 50 μg of antisense plasmid in 80 μl of 150 mM NaCl was carried out. Four other electrotransfers of 50 μg of antisense plasmid in 80 μl of 150 mM NaCl were subsequently carried out in the tumors on the days indicated by the arrows.
Twenty-five μg of bleomycin/animal in 50 μl of 150 mM NaCl were injected bilaterally into the tibialis cranialis muscle and, 30 minutes later, each tumor was injected with 80 μl of 150 mM NaCl and subjected to an electrotransfer. Four other electrotransfers of 80 μl of 150 mM NaCl were subsequently carried out in the tumors on the days indicated by the arrows.
Twenty-five μg of bleomycin/animal in 50-μl of 150 mM NaCl were injected bilaterally in the tibialis cranialis muscle and, 30 minutes later, an electrotransfer of 50 μg of antisense plasmid in 80 μl of 150 mM NaCl was carried out. Four other electrotransfers of 50 μg of antisense plasmid in 80 μl of 150 mM NaCl were subsequently carried out in the tumors on the days indicated by the arrows.

**Q.** For bleomycin, which “Delay in growth, treatment versus untreated” value (Experiment 1) is on record?
**A.** Its value is 30 days.

**Q.** What about the “D1000, number of days required to reach a tumor volume of 1000 mm^3” value (Experiment 1 (Table 3)) of the same substance?
**A.** The value was “D44 days”.

**Q.** And the “Day 1000 mm^3 (median), number of days to reach 1000 mm^3 of tumor volume” value (Experiment 1, H1299 tumors, 25 μg bleomycin i.m. and/or 5 electrotransfers of 50 μg plasmid)?
**A.** The value was 44.40 days.

**Q.** What about the “Number of tumors cured (tumors no longer measurable)” value (Experiment 1) of the same substance?
**A.** Its value is 1/13.

**Q.** And the “Delay in growth, treatment versus electro/NaCl” value (Experiment 2)?
**A.** The value was 17 days.

**Q.** And the “D1000, number of days required to reach a tumor volume of 1000 mm^3” value (Experiment 2 (Table 3))?
**A.** The value was “D38 days”.

**Q.** And the “D 1000 mm^3 (median), number of days to reach 1000 mm^3 of tumor volume” value (Experiment 2, H1299 tumors, 25 μg bleomycin i.m. and/or 5 electrotransfers of 50 μg plasmid)?
**A.** The value was 38.00 days.

**Q.** What about the “Number of tumors cured (tumors no longer measurable)” value (Experiment 2) of the same substance?
**A.** The value was 1/11.

**Q.** What about the “Tumor (complete) cure rate” value (H1299 tumors, summary over Experiments 1 and 2) of the same substance?
**A.** The value was 10%.
